The results in this text go back to the supplement of paper PMC11061612.

What all share (experiment): Bliss excess, mean over the matrix (fraction); higher = more synergy
In test [1] the test system is NCI-H441 (Lung Adenocarcinoma). In outline:
(§1)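 After 24 hours at 37°C and 5% CO2 in 1536-well plates, cells in DMEM/F12 or RPMI plus 10% FBS received two-drug dose matrices for 72 hours. Viability came from CellTiter-Glo 2.0 luminescence and was scaled as inhibition, anchored at 0 by vehicle wells and at 1 by blank wells. Combination Emax is taken as the second-highest inhibition in the matrix, and Bliss excess as the observed combination effect less EA + EB − EA·EB, with EA and EB the single-agent effects.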

The subject of test [2] is NCI-H2228 (Lung Adenocarcinoma). The method, boiled down: as §1
Test [3] relates to KP-N-YN (Neuroblastoma). The method, boiled down: as §1
In test [4] the test system is LU-165 (Small Cell Lung Carcinoma). In outline: as §1
Test [5] concerns NCI-H1703 (Squamous Cell Lung Carcinoma). The method, boiled down: as §1
Test [6] relates to huH-1 (Hepatocellular Carcinoma). The method, boiled down: as §1
Test [7] relates to LS-411N (Colorectal Carcinoma). The method, boiled down: as §1
The test system of test [8] is UACC-812 (Breast Carcinoma). In outline:
as §1

Test [9] relates to KYSE-140 (Esophageal Squamous Cell Carcinoma). The method, boiled down: as §1
For test [10], the system named is MHH-ES-1 (Ewing's Sarcoma). In outline:
as §1

Test [11] concerns Jurkat (T-Lymphoblastic Leukemia). The method, boiled down:
as §1

The subject of test [12] is ESO26 (Esophageal Adenocarcinoma). The method, boiled down:
as §1

The subject of test [13] is G-402 (Other Solid Carcinomas). In outline: as §1
For test [14], the system named is WM1552C (Melanoma). The method, boiled down: as §1
Test [15] concerns RH-41 (Rhabdomyosarcoma). In outline: as §1
For test [16], the system named is OACp4C (Esophageal Adenocarcinoma). In outline: as §1
In test [17] the test system is A2780 (Ovarian Carcinoma). The method, boiled down: as §1
Test [18] deals with CA46 (Burkitt's Lymphoma). In outline:
as §1

Test [19] relates to A204 (Rhabdomyosarcoma). In outline:
as §1

For test [20], the system named is MDA-MB-436 (Breast Carcinoma). The method, boiled down:
as §1

Take `Cn1cnc2c(F)c(Nc3ccc(Br)cc3Cl)c(C(=O)NOCCO)cc21` [Selumetinib] + CCN(CCO)CCCOc1ccc2c(Nc3cc(CC(=O)Nc4cccc(F)c4)[nH]n3)ncnc2c1 [AZD2811] (first compound max 10 µM, 7x7, partner max 1 µM): the Bliss excess in [1] was -0.0565; in test [2], -0.0357; in test [3] it was 0.0253; in test [4] it was -0.0377; in test [5] it was -0.0167; in test [6], -0.0492. Also, the Bliss excess is -0.0115 in [7]; -0.049 in test [8]; -0.0554 in test [9]; -0.0268 in test [10]; -0.0216 in test [11]; -0.0374 in test [12]. Moreover, the Bliss excess in test [13] was -0.0137; in test [14] it was -0.0694; in test [15], 0.0363; in test [16], 0.0193; in test [17], 0.0251; in test [18] it was -0.0093. The Bliss excess is -0.0772 in test [19] and -0.006 in [20].

Regarding `Cn1cnc2c(F)c(Nc3ccc(Br)cc3Cl)c(C(=O)NOCCO)cc21` [Selumetinib] + C[C@@H]1COCCN1C2=NC(=NC(=C2)C3(CC3)[S@](=N)(=O)C)C4=C5C=CNC5=NC=C4 [AZD6738] (first compound max 10 µM, 7x7, partner max 10 µM), the Bliss excess was 0.0498 in [1]; -0.0098 in [2]; -0.0431 in test [3]; -0.0284 in test [4]; -0.0318 in test [5]; -0.0551 in test [6]. The Bliss excess in [7] is -0.0195; in test [8], -0.0397; in [9], -0.0888; in test [10], -0.046; in test [11], -0.0227; in [12], -0.0189. For the same compound, the Bliss excess was -0.0353 in [13]; -0.0591 in [14]; -0.0004 in test [15]; -0.0052 in test [16]; 0.0429 in [17]; -0.0159 in [18]. Also, the Bliss excess was -0.0363 in test [19] and -0.0064 in test [20].

In the case of `CC(=O)Nc1cccc(-n2c(=O)n(C3CC3)c(=O)c3c(Nc4ccc(I)cc4F)n(C)c(=O)c(C)c32)c1` [Trametinib] + Cc1nc(-c2cn3c(n2)-c2ccc(-c4cnn(C(C)(C)C(N)=O)c4)cc2OCC3)n(C(C)C)n1 [Taselisib] (first compound max 1 µM, 7x7, partner max 10 µM), the Bliss excess was 0.102 in test [1]; 0.0724 in test [2]; 0.0046 in test [3]; 0.0388 in test [4]; 0.0652 in [5]; 0.195 in test [6]. The Bliss excess is 0.125 in test [7]; 0.0522 in [8]; -0.0046 in [9]; 0.0141 in [10]; 0.0414 in test [11]; 0.147 in [12]. Moreover, the Bliss excess in [13] came to 0.0104; in test [14], 0.0903; in [15] it was 0.0419; in [16], 0.0416; in [17], 0.0164; in [18], 0.0404. Also, the figures for the Bliss excess in test [19] and in [20] were 0.149 and 0.0567, respectively.

In the case of `CC1(C)CCC(CN2CCN(c3ccc(C(=O)NS(=O)(=O)c4ccc(NCC5CCOCC5)c([N+](=O)[O-])c4)c(Oc4cnc5[nH]ccc5c4)c3)CC2)=C(c2ccc(Cl)cc2)C1` [Venetoclax] + C1CN(CCC1(C(=O)N[C@@H](CCO)C2=CC=C(C=C2)Cl)N)C3=NC=NC4=C3C=CN4 [Capivasertib] (first compound max 1 µM, 7x7, partner max 3 µM), the Bliss excess was -0.0707 in [1]; -0.0537 in test [2]; -0.0573 in [3]; -0.0268 in [4]; 0.0192 in test [5]; -0.0411 in test [6]. Besides, the Bliss excess in [7] was -0.0139; in [8], -0.0212; in test [9], -0.018; in test [10] it was -0.01; in [11], -0.016; in test [12] it was -0.0751. Moreover, the Bliss excess in test [13] was -0.12; in [14], -0.0834; in [15], 0.0441; in test [16], -0.0062; in test [17], -0.0223; in [18], -0.0473. In addition, the Bliss excess is -0.0358 in test [19] and -0.0513 in test [20].

Regarding `CC1(C)CCC(CN2CCN(c3ccc(C(=O)NS(=O)(=O)c4ccc(NCC5CCOCC5)c([N+](=O)[O-])c4)c(Oc4cnc5[nH]ccc5c4)c3)CC2)=C(c2ccc(Cl)cc2)C1` [Venetoclax] + C=CCn1c(=O)c2cnc(Nc3ccc(N4CCN(C)CC4)cc3)nc2n1-c1cccc(C(C)(C)O)n1 [AZD1775] (first compound max 1 µM, partner max 1 µM), the Bliss excess in test [1] was 0.002; in [2], -0.0602; in test [3], 0.0109; in [4], -0.0506; in test [5] it was 0.009; in test [6] it was -0.066. The Bliss excess was -0.0856 in [7]; -0.0681 in test [8]; -0.0037 in test [9]; -0.001 in test [10]; -0.0183 in test [11]; -0.0373 in test [12]. Also, the Bliss excess was -0.0625 in test [13]; 0.0354 in test [14]; 0.0778 in test [15]; -0.03 in test [16]; 0.0477 in test [17]; -0.0322 in [18]. Besides, the Bliss excess in test [19] was -0.0433; in test [20] it was -0.0202.

Take `CC1(C)CCC(CN2CCN(c3ccc(C(=O)NS(=O)(=O)c4ccc(NCC5CCOCC5)c([N+](=O)[O-])c4)c(Oc4cnc5[nH]ccc5c4)c3)CC2)=C(c2ccc(Cl)cc2)C1` [Venetoclax] + CCN(CCO)CCCOc1ccc2c(Nc3cc(CC(=O)Nc4cccc(F)c4)[nH]n3)ncnc2c1 [AZD2811] (first compound max 1 µM, 7x7, partner max 1 µM): the Bliss excess is -0.044 in test [1]; -0.039 in test [2]; 0.104 in test [3]; -0.0665 in [4]; 0.0412 in [5]; -0.0337 in test [6]. Besides, the Bliss excess in [7] was -0.0284; in test [8], -0.0283; in test [9] it was -0.0045; in [10], 0.0824; in test [11], 0.0202; in [12] it was -0.0262. Besides, the Bliss excess was -0.0036 in test [13]; -0.0804 in test [14]; 0.0561 in [15]; -0.0234 in test [16]; 0.019 in test [17]; -0.0283 in [18]. In addition, the Bliss excess was 0.0005 in test [19] and -0.023 in test [20].

Take `CC1(C)CCC(CN2CCN(c3ccc(C(=O)NS(=O)(=O)c4ccc(NCC5CCOCC5)c([N+](=O)[O-])c4)c(Oc4cnc5[nH]ccc5c4)c3)CC2)=C(c2ccc(Cl)cc2)C1` [Venetoclax] + CN(C)CCCOc1ccc(-c2ccc3ncc4c(c3c2)n(C2CCOCC2)c(=O)n4C)cn1 [AZD0156] (first compound max 1 µM, 7x7, partner max 1 µM): the Bliss excess in test [1] is -0.0733; in test [2], -0.0004; in test [3], -0.0016; in [4] it was -0.0309; in test [5], 0.013; in [6], -0.032. Further, the Bliss excess was -0.0214 in test [7]; -0.016 in test [8]; 0.0177 in test [9]; 0.0177 in [10]; -0.0111 in test [11]; -0.0063 in test [12]. The Bliss excess in [13] was -0.0774; in test [14] it was -0.0674; in [15], 0.0618; in test [16] it was -0.0468; in [17], -0.02; in [18], -0.026. Further, the Bliss excess is -0.0325 in test [19] and -0.0319 in test [20].
